The numbers were not newly measured in US7803960B2, “Phenyloxyaniline derivatives” (Bayer Schering Pharma Aktiengesellschaft, priority 2006, dated 2010), which cites them from elsewhere.

Each structure is given as a SMILES string.

For series [1], the system named is Peripheral benzodiazepine receptor (PBR). As to conditions: compared with [^11C]PK11195 (1).
For series [2] the following is noted: compared with [^11C]PK11195 (1).
Series [3] concerns the target T1, PBRs (Homo sapiens, UniProt P30536).
T1 construct: host or cells: brain, in vivo
The following applies: C-11 isotope labeled version, in vivo imaging.

T1 sequence (P30536 whole entry): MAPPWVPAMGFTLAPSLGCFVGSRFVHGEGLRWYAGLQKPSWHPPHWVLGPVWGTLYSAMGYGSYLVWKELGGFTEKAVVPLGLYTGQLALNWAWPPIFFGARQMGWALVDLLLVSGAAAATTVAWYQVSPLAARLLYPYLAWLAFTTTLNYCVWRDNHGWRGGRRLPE

As for `COc1ccc(O[11CH3])c(CN(C(C)=O)c2cc(F)ccc2Oc2ccccc2)c1` [Compound 2], the “binding affinity to PBR” value in series [1] was “higher”. Also, in series [2], the “accumulation in the brain” value is reported as “higher”.

For the molecule `COc1ccc(OCC[18F])c(CN(C(C)=O)c2cc(F)ccc2Oc2ccccc2)c1` [Compound 3, N-(5-Fluoro-2-phenoxyphenyl)-N-(2-(2-[^18F]fluoroethoxy)-5-methoxybenzyl)acetamide], the “binding affinity to PBR” value in series [1] was “higher”. In series [2], the “accumulation in the brain” value was “higher”.

Regarding `CC[C@@H](C)N(C)C(=O)c1cc2ccccc2c(-c2ccccc2Cl)n1` [PK11195], the “signal in the brain” value in series [3] was “not high enough for stable quantitative analysis”.
